Data taken from US8822510B2, “Substituted 3-phenyl-1,2,4-Oxadiazole compounds” (Bristol-Myers Squibb Company, priority 2010, dated 2014).

System: circulating lymphocytes
Experiment: Blood Lymphocyte Reduction Assay (BLR) in Rodents
Format: in vivo
Settings: Lewis rats, oral, vs vehicle group
Procedure: Lewis rats were dosed orally with test article (as a solution or suspension in the vehicle) or vehicle alone (polyethylene glycol 300, “PEG300”). Blood was drawn at 4 hr and 24 h by retro-orbital bleeding. Blood lymphocyte counts were determined on an ADVIA 120 Hematology Analyzer (Siemens Healthcare Diagnostics). The results were measured as a reduction in the percentage of circulating lymphocytes as compared to the vehicle treated group at the 4 hr and 24 hr measurement. The results represent the average results of all animals within each treatment group (n=3-4).
The following examples were tested in the Blood Lymphocyte Reduction assay (BLR) described hereinabove and the results are shown in Table C for rats.

SMILES	% REDUCTION IN LYMPHOCYTES AT 4 HR. (10.0 mg/kg) [%]	further results
Cc1cc(-c2noc(/C(F)=C/C3(c4ccc(Cl)cc4)CC3)n2)cc(C)c1OC[C@@H](O)CO [Example 48, (2S)-3-(4-(5-((Z)-2-(1-(4-chlorophenyl)cyclopropyl)-1-fluorovinyl)-1,2,4-oxadiazol-3-yl)-2,6-dimethylphenoxy)-1,2-propanediol]	83	
O=C(O)C1CN(Cc2ccc(-c3noc(/C=C/C4(c5cccc(Cl)c5)CCCCC4)n3)cc2)C1 [Example 90, 1-(4-(5-((E)-2-(1-(3-chlorophenyl)cyclohexyl)vinyl)-1,2,4-oxadiazol-3-yl)benzyl)-3-azetidinecarboxylic acid]		% REDUCTION IN LYMPHOCYTES AT 4 HR. (5.0 mg/kg): 85%
CC(C)(CCCc1nc(-c2ccc(CN3CC(C(=O)O)C3)cc2)no1)c1ccc(F)cc1 [Example 128, 1-(4-(5-(4-(4-fluorophenyl)-4-methylpentyl)-1,2,4-oxadiazol-3-yl)benzyl)-3-azetidinecarboxylic acid]	80	
O=C(O)C[C@@H]1CC(c2ccc(-c3noc(CCC4(c5ccccc5)CCCCC4)n3)cc2)=NO1 [Example 133, (S)-(3-(4-(5-(2-(1-phenylcyclohexyl)ethyl)-1,2,4-oxadiazol-3-yl)phenyl)-4,5-dihydro-5-isoxazolyl)acetic acid]		% REDUCTION IN LYMPHOCYTES AT 4 HR. (20.0 mg/kg): 84%
